Data as given in patent US20220275458A1, “PREDICTION OF CANCER THERAPY EFFICACY” (UNIVERSITY OF MASSACHUSETTS, priority 2019, published 2022).

Key:
RPE1 cells [1] = assay: Cell survival assays in Control, FANCJ K/O and BRCA1 K/O RPE1 cells; type: cell-based, human; details: for sensitivity at therapeutic range: 0.5 uM Olaparib
Description: (§1) Cells were seeded onto 96-well plates (500 cells per well, performed in triplicate for each experiment group) and incubated overnight. The next day, cells were treated with increasing doses of drugs indicated in corresponding figures and maintained in complete media for 5 to 7 days. Percentage survival was measured photometrically using a CellTiter-Glo 2.0 viability assay (Promega) in a microplate reader (Beckman Coulter DTX 880 Multimode Detector).

[2] = test system: BRCA-RAD51 pathway proficient or deficient cell lines; assay: PARPi response of model cell systems (Table 4 summary); type: cell-based
Description: In the above tested model systems, HR or FP sometimes correlate with PARPi resistance whereas ssDNA gap suppression always correlates. Moreover, defects in HR or FP sometimes correlate with PARPi sensitivity whereas gaps always correlate.
as §1

RPE1 cells [3] = assay: DNA fiber assay following olaparib treatment; type: cell-based, human; details: 10 μM olaparib, 2 h
Description: Cells were labeled by sequential incorporation of two different nucleotide analogs, IdU and CldU, into nascent DNA strands for the indicated time and conditions. After nucleotide analogs were incorporated in vivo, the cells were collected, washed, spotted, and lysed on positively charged microscope slides by […] spreading buffer for 8 min at room temperature. For experiments with the ssDNA-specific endonuclease S1, after the CldU pulse, cells were treated with CSK100 buffer for 10 min at room temperature, then incubated with S1 nuclease buffer with or without 20 U/mL S1 nuclease (Invitrogen, 18001-016) for 30 min at 37 C. The cells were then scraped in PBS +0.1% BSA and centrifuged at 7,000 rpm for 5 min at 4 C. Cell pellets were resuspended at […] and lysed with lysis solution on slides. Individual DNA fibers were released and spread by tilting the slides at 45 degrees. After air-drying, fibers were fixed by 3:1 methanol/acetic acid at room temperature for 3 min. After air-drying again, fibers were rehydrated in PBS, denatured with 2.5 M HCl for 30 min, washed with PBS, and blocked with blocking buffer for 1 hr. […] Finally, visualization of green and/or red signals by fluorescence microscopy (Axioplan 2 imaging, Zeiss) provided information about the active replication directionality at the single-molecule level.

[4] = test system: pro-TLS U2OS and HCT15 cells; assay: Colony formation assay with ATRi or Wee1i alone or with TLSi; type: cell-based, human; details: for clonogenic survival: pro-TLS U2OS cells compared to non-TLS dependent cells; for response in colony formation assay: pro-TLS cancer cell line HCT15
Description: Currently, there is a major clinical effort to combat cancer by induction of replication stress through inhibition of ATR or the mitotic checkpoint kinase, Wee1 (Bukhari et al., 2019). Given that these drugs induce replication gaps, it was considered that if gaps were the sensitizing lesion, TLS could also interfere with their effectiveness. […] See, FIG. 55A, 5B and FIG. 56A-D; (Bukhari et al., 2019).
For colony formation assays either 500 or 1000 cells per well were seeded into 6 well plates and were treated continuously with or without TLSi. Once the colonies had developed, the cells were fixed with 90% methanol and then stained with 0.05% (w/v) crystal violet solution. Plates were then imaged using ChemiDocTM Touch Imaging System (BioRad).

PEO1 and C4-2 cells = assay: Cell survival assay, cisplatin, PEO1 and C4-2; type: cell-based, human
Description: Cells were plated at 500 cells per well in the center wells of a 96 well plate in 200 ul volume and allowed to adhere for 36 h. Subsequently, drugs were added in a 100 ul volume and the cells were incubated for 10 days. CellTiter-Glo 2.0 (Promega) was used to quantify cell number by ATP. To prevent evaporation, all blank wells in the 96 well plate were filled with media, and each plate was placed in a humid chamber with PBS.

[5] = test system: TLS cancer vs non-TLS cancer or non-cancer cells; assay: Combined assay: EdU replication and ssDNA gaps (TLS specificity); type: cell-based, human; details: U2OS cell lines; HU plus ATR inhibitor
Description: A combination assay was performed in a high-throughput manner using 384-well plates. This assay served as a rapid and efficient method to determine the anti-TLS activity of the lead compounds and novel analogues. […] Specifically, the assay identifies compounds that cause TLS cells, but not non-TLS cells, to lose replication (green) and gain ssDNA gaps (red). […] Colors can be identified using a high content and high throughput imaging camera. […] Moreover, red and green fluorescent readouts are readable/quantifiable from full well images at 20×. Several positive and negative controls that may be employed in parallel with the screen to induce gaps or suppress gaps. In particular, under these assay conditions replication with gaps are induced when ATR is inhibited.
A combined assay can be performed to first analyze the ability of these TLSi's to inhibit global replication with concomitant induction of ssDNA in TLS cancer vs non-TLS cancer or non-cancer cells. Second, a colony formation assays in each of these models to determine whether the TLSi's selectively reduce colony formation in TLS cancer cells.
Immunofluorescence was performed as described previously^27. Cells were grown on coverslips in 10 μM BrdU for 48 h before the treatment with drugs. Cells were then treated with the aforementioned drugs for 2 h. […]

BR5-R1 cells = assay: Cell survival assays for T2, BR5 and BR5-R1 cells; type: cell-based, mouse; details: BR5-R1 PARPi-resistant cells; VE-821 1 μM co-incubated with olaparib
Description: To determine whether gap suppression mechanisms occur in models of de novo PARPi resistance, cell lines were analyzed that were initially sensitive to PARPi and then had gained PARPi resistance while propagated in tissue culture^41. BRCA1-deficient mouse ovarian tumor cell line, BR5, was utilized and its derived PARPi-resistant cell line, BR5-R1^41. PARPi sensitivity of BR5 was confirmed as compared to BR5-R1 and BRCA1 proficient T2 cells. See, FIG. 41A. […] See, FIG. 41B. […] See, FIGS. 41B and 41C. Thus, BR5-R1 cells resemble FANCJ deficient cells, in that they both lack PARPi induced-sensitivity, lengthening, or gaps, but remain sensitive to cisplatin. See, FIG. 42A. […] See, FIGS. 41A, 41C and 42A.
as §1

U2OS cells = assay: Electron microscopy of reversed replication forks; type: cell-based, human; details: 4 mM HU
Description: To investigate the effect of TLS on the fine replication fork architecture, psoralen cross-linking coupled to reversed fork intermediates were detected with electron microscopy (EM) with or without elevated TLS. Following 4 mM HU treatment, a substantial fraction of reversed replication forks were found in FANCJ^WT and empty vector U2OS cells (˜26% and 23%, respectively). […] See, FIG. 6D.
For the EM analysis of replication intermediates, 5-10×10^6 U2OS cells treated with or without 4 mM HU were collected and genomic DNA was cross-linked by two rounds of incubation in 10 μg ml-1 4,5,8-trimethylpsoralen (Sigma-Aldrich) and 3 min of irradiation with 366 nm UV light on a precooled metal block10,26. Cells were lysed and genomic DNA was isolated from the nuclei by proteinase K (Roche) digestion and phenol-chloroform extraction. DNA was purified by isopropanol precipitation, digested with PvuII HF in the proper buffer for 3-5 h at 37° C. and replication intermediates were enriched on a benzoylated naphthoylated DEAE-cellulose (Sigma-Aldrich) column. EM samples were prepared by spreading the DNA on carbon-coated grids in the presence of benzyl-dimethyl-alkylammonium chloride and visualized by platinum rotary shadowing. Images were acquired on a transmission electron microscope (JEOL 1200 EX) with side-mounted camera (AMTXR41 supported by AMT software v601) and analyzed with ImageJ (National Institutes of Health). EM analysis allows distinguishing duplex DNA—which is expected to appear as a 10 nm thick fiber, after the platinum/carbon coating step necessary for EM visualization—from ssDNA, which has a reduced thickness of 5-7 nm. The criteria used for the unequivocal assignment of reversed forks include the presence of a rhomboid structure at the junction itself in order to provide a clear indication that the junction is opened up and that the four-way junction structure is not simply the result of the occasional crossing of two DNA molecules^25. […]

O=C(c1cc(Cc2n[nH]c(=O)c3ccccc23)ccc1F)N1CCN(C(=O)C2CC2)CC1 [olaparib]
sensitivity at therapeutic range (RPE1 cells [1]; BRCA1 K/O RPE cells): sensitive | sensitivity at therapeutic range (RPE1 cells [1]; control and FANCJ K/O cells): not sensitive | sensitivity in cell survival assay (RPE1 cells [1]; BRCA1 K/O RPE1 cells, olaparib): sensitive | sensitivity in cell survival assay (RPE1 cells [1]; FANCJ K/O RPE1 cells, olaparib): not sensitize | PARPi response ([2]; BRCA1/2 deficient): sensitive | PARPi response ([2]; BRCA1/2 proficient): resistant | PARPi response ([2]; BRCA1 and 53BP1 deficient): resistant | PARPi response ([2]; BRCA2 S3291A mutant): resistant | PARPi response ([2]; BRCA2 and CHD4 deficient): resistant | PARPi response ([2]; FANCJ deficient): resistant | PARPi response ([2]; RAD51 T131P mutant): sensitive | PARPi response ([2]; RAD51 T131P mutant and RADX deficient): sensitive | replication tract length (RPE1 cells [3]): lengthens replication tracts

C=CCn1c(=O)c2cnc(Nc3ccc(N4CCN(C)CC4)cc3)nc2n1-c1cccc(C(C)(C)O)n1 [MK1775]
clonogenic survival [4]: greater clonogenic survival | response in colony formation assay [4]: resistance

N.N.[Cl][Pt][Cl] [cisplatin]
sensitivity in cell survival assay (RPE1 cells [1]; BRCA1 K/O RPE1 cells, cisplatin): sensitive | sensitivity in cell survival assay (RPE1 cells [1]; FANCJ K/O RPE1 cells, cisplatin): sensitive | cisplatin response (PEO1 and C4-2 cells; C4-2 cells, BRCA2 proficient PEO1 reversion line): resistant | cisplatin response (PEO1 and C4-2 cells; PEO1 cells, truncated BRCA2): hypersensitive

CS(=O)(=O)c1ccc(-c2cnc(N)c(C(=O)Nc3ccccc3)n2)cc1 [VE-821]
replication and ssDNA gaps during stress [5]: promoted replication during stress, but with significant ssDNA gap induction | effect on PARPi sensitivity (BR5-R1 cells): re-established PARPi sensitivity | clonogenic survival [4]: greater clonogenic survival | response in colony formation assay [4]: resistance

CC[C@@]1(O)C(=O)OCc2c1cc1n(c2=O)Cc2cc3ccccc3nc2-1 [CPT, camptothecin]
sensitivity in cell survival assay (RPE1 cells [1]; FANCJ K/O RPE1 cells, CPT): sensitive

NC(=O)NO [HU, hydroxyurea]
frequency of fork reversal events (U2OS cells; FANCJ S990A U2OS cells): ~11% | fraction of reversed replication forks (U2OS cells; FANCJ WT U2OS cells): ~26% | fraction of reversed replication forks (U2OS cells; empty vector U2OS cells): 23%
